Four molecules from patent publication US8129413B2, “Crystalline forms of MC4R agonist and process for synthesis” (Merck Sharp & Dohme Corp., priority 2005, dated 2012) can be followed below.

What all share (assay type): physicochemical
The nature of data set [1]: Crystal form conversion on exposure to relative humidity. The protocol:
(§1) Method 2 Drying the crystalline hydrate mono HCl salt of Compound I (1-7) at a temperature over about 4° C. and relative a humidity less than about 10% yields the crystalline anhydrous mono HCl salt Form I of Compound I (1-5). The crystalline hydrate mono HCl salt of Compound I (1-7) converts to the crystalline anhydrous mono HCl salt Form I of Compound I (1-5) by means of a continuous change; as the crystalline hydrate is dried, the x-ray diffraction pattern, solid-state carbon-13 CPMAS, and solid-state fluorine-19 MAS patterns merge from the crystalline hydrate to crystalline anhydrous Form I. Incomplete conversion to the anhydrous form I will yield a unique phase, not merely a mixture of crystalline anhydrous form I and crystalline hydrate.
Method 1 A solution of compound 1-3 from Example 1 (14.6 g, 26.7 mmol) in isopropyl acetate (91 ml, at 160 g/L) was agitated in vessel 1 at 15-25° C., and 0.5 N HCl/H2O solution (54.4 mL, 27.2 mmol) was added. The mixture was aged for 5-10 minutes with agitation followed by settling without agitation. The aqueous layer was removed and transferred to vessel 2. 20 ml of deionized water were charged to vessel 1, as a rinse of the isopropyl acetate layer. After agitating the isopropyl acetate-deionized water mixture for about 5 minutes, the aqueous layer was removed and combined with the aqueous layer in vessel 2. […]

A short description of data set [2]: Thermodynamic stability and interconversion of crystalline forms. The protocol: as §1
Data set [3] is described as follows: Storage stability of the free base.

Structures are written as SMILES.

In the case of `CC(=O)N[C@@H](C)c1cc(Cl)ccc1C1CCN(C(=O)C2CN(C(C)(C)C)C[C@H]2c2ccc(F)cc2F)CC1` (stereo partly drawn) [Compound 1-5], the “relative humidity at which anhydrous Form I converts to crystalline hydrate mono HCl salt” value in data set [1] (exposure to humidity, continuous structural change) is recorded as “greater than 20%”. For the molecule `CC(=O)N[C@@H](C)c1cc(Cl)ccc1C1CCN(C(=O)C2CN(C(C)(C)C)C[C@H]2c2ccc(F)cc2F)CC1` (stereo partly drawn) [Compound 1-6], the “physical stability of the crystal form (conversion to another form)” value in data set [2] (room temperature) is “converts to crystalline anhydrous mono HCl salt Form I (1-5) at room temperature”.

Take `CC(=O)N[C@@H](C)c1cc(Cl)ccc1C1CCN(C(=O)C2CN(C(C)(C)C)C[C@H]2c2ccc(F)cc2F)CC1` (stereo partly drawn) [Compound 1-7]: in data set [2] (ambient conditions), the “thermodynamic stability among crystalline forms” value is “most thermodynamically stable crystalline form”. Moreover, in data set [1] (drying at a temperature over about 4° C.), the “relative humidity at which hydrate converts to anhydrous mono HCl salt Form I” value is “less than 10%”.

With `CC(=O)N[C@@H](C)c1cc(Cl)ccc1C1CCN(C(=O)[C@@H]2CN(C(C)(C)C)C[C@H]2c2ccc(F)cc2F)CC1` [Compound I, N-{(1S)-1-[2-(1-{[(3S,4R)-1-tert-butyl-4-(2,4-difluorophenyl)pyrrolidin-3-yl]carbonyl}piperidin-4-yl)-5-chlorophenyl]ethyl}acetamide], the “stability of the solid form” value in data set [3] (storage, light, heat) was “unstable, photosensitive and thermally sensitive”. For the same molecule, the “storage temperature above which subject to oxidation” value in data set [3] (stored) is “greater than −40 °C”.
